Assays:
Cytochrome P450 2C9 = Cytochrome P450 2C9 (Homo sapiens, UniProt P11712); assay: Activity of human recombinant CYP2C9 expressed in microsomes isolated from human AHH-1 cells assessed as enzyme-mediated compound formation treated with Lu AA21004 at 8 to 50 uM after 120 mins by HPLC/MS-MS analysis in presence of NADPH regenerating system with NADP+; format: ADME, cell-free; settings: 2 h
Liver microsome [1] = assay: Drug level in pooled human liver microsomes treated with Lu AA21004 at 100 uM after 30 to 180 mins by HPLC/MS-MS analysis in presence of NADPH regenerating system with NADP+; format: ADME
Liver microsome [2] = assay: Drug level in phenotyped human liver microsomes treated with Lu AA21004 at 8 to 50 uM after 60 mins by HPLC/MS-MS analysis in presence of NADPH regenerating system with NADP+; format: ADME; settings: 1 h
Cytochrome P450 2C19 = Cytochrome P450 2C19 (Homo sapiens, UniProt P33261); assay: Activity of human recombinant CYP2C19 expressed in microsomes isolated from human AHH-1 cells assessed as enzyme-mediated compound formation treated with Lu AA21004 at 8 to 50 uM after 120 mins by HPLC/MS-MS analysis in presence of NADPH regenerating system with NADP+; format: ADME, cell-free; settings: 2 h
Cytochrome P450 2B6 = biological target: T1, Cytochrome P450 2B6 (Homo sapiens, UniProt P20813); assay: Activity of human recombinant CYP2B6 expressed in microsomes isolated from human AHH-1 cells assessed as enzyme-mediated compound formation treated with Lu AA21004 at 8 to 50 uM after 120 mins by HPLC/MS-MS analysis in presence of NADPH regenerating system with NADP+; format: ADME, cell-free; settings: 2 h
T1 sequence (P20813 whole entry): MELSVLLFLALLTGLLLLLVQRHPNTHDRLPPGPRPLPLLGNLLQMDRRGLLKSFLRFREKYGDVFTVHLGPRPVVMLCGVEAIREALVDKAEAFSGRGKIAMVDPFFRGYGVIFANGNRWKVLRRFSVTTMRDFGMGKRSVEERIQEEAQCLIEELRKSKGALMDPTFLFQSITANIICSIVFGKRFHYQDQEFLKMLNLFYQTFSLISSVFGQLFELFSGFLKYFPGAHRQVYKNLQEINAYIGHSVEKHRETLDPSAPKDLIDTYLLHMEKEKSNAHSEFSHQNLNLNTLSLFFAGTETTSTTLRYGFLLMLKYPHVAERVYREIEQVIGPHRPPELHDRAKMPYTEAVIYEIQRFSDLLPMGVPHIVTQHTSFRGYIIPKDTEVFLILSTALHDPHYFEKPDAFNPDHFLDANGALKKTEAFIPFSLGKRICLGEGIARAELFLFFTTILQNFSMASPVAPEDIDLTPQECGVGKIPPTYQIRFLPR

Measured: Drug metabolism

Cytochrome P450 2C19, sequence (P33261 whole entry): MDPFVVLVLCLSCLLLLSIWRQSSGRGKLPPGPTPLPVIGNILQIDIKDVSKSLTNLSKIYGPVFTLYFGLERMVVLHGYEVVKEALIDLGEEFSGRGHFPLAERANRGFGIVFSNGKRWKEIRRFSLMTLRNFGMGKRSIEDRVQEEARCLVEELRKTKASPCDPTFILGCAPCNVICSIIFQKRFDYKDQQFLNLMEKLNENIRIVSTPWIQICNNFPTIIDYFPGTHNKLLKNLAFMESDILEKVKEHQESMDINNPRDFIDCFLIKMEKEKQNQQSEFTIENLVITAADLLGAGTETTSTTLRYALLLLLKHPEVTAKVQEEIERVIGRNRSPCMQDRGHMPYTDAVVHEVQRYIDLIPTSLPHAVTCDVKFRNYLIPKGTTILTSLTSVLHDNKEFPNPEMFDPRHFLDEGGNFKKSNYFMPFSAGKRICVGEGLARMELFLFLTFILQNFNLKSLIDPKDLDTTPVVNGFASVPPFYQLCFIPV
Cytochrome P450 2C9, sequence (P11712 whole entry): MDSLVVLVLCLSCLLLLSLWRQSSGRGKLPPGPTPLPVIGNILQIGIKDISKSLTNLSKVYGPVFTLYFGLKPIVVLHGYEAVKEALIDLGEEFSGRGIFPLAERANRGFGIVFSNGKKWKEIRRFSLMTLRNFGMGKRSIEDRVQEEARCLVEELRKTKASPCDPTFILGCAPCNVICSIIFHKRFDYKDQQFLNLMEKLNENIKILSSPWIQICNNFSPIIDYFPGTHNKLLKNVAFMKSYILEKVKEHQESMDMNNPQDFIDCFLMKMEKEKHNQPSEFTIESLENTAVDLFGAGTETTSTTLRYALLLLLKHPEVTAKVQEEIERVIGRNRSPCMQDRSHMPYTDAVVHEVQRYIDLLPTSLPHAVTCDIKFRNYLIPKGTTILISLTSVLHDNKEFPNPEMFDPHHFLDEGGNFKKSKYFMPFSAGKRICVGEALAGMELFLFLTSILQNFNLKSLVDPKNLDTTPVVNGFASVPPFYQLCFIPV

Cc1ccc(Sc2ccccc2N2CCN(O)CC2)c(C)c1
metabolite_detected: all assays above

From ChEMBL document CHEMBL3525899, “Identification of the cytochrome P450 and other enzymes involved in the in vitro oxidative metabolism of a novel antidepressant, Lu AA21004” (Drug Metab Dispos, 2012)
